From patent US9290451B2 (Hoffmann-La Roche Inc., priority 2011, dated 2016)

Assays:
human CB2 receptors = human CB2 receptors (Homo sapiens (Human), UniProt P34972); test: cAMP assay, CHO cells expressing human CB2 receptors; type: cell-based; conditions: CHO cells expressing human CB2, cAMP; read-out: human CB2 EC50
Outline: (§1)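 In this cellular cAMP test, IBMX (1 mM) blocked phosphodiesterase during a 30-min, 30 °C compound exposure. Accumulated cAMP was measured by a lysis-based TR-FRET kit and interpolated from a standard curve to give EC50.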

human CB1 receptors = human CB1 receptors (Homo sapiens (Human), UniProt P21554); test: cAMP assay, CHO cells expressing human CB1 receptors; type: cell-based; conditions: CHO cells expressing human CB1, cAMP; read-out: human CB1 EC50
Outline: as §1

Chain of human CB2 receptors (P34972 whole entry): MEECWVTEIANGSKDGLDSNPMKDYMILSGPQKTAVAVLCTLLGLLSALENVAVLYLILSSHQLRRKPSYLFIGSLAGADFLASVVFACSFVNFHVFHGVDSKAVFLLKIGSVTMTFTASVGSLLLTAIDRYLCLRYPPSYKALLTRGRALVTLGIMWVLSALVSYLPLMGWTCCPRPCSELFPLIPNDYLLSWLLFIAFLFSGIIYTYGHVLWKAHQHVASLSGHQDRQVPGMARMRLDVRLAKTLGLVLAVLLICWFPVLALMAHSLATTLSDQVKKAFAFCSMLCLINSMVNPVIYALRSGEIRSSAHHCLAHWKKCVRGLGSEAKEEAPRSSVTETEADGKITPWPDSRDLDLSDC
Chain of human CB1 receptors (P21554 whole entry): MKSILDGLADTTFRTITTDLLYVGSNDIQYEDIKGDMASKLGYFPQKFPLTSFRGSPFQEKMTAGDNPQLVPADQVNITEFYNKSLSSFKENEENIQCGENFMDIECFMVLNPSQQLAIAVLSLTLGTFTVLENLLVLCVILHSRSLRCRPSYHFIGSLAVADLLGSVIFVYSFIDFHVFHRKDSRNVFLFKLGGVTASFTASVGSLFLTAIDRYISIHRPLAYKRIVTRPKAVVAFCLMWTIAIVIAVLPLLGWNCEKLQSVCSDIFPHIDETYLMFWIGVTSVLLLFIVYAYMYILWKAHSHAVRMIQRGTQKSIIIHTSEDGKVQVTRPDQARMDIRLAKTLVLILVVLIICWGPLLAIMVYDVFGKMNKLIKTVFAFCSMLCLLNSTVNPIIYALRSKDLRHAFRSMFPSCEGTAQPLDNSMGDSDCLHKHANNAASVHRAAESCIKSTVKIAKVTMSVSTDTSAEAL

## CNC(=O)[C@H](CC(C)(C)C)NC(=O)c1ccc(C2CC2)c(OCC2CCCO2)n1 (stereo partly drawn) [Example 185, 5-Cyclopropyl-N-((S)-4,4-dimethyl-1-(methylamino)-1-oxopentan-2-yl)-6-((tetrahydrofuran-2-yl)methoxy)picolinamide]
Human CB2 receptors
  EC50: 7.5 nM
Human CB1 receptors
  EC50: > 10 µM

## CC1(COc2nc(C(=O)NC(C)(C)c3nccs3)ccc2Br)COC1 [Example 280, 5-Bromo-6-(3-methyl-oxetan-3-ylmethoxy)-pyridine-2-carboxylic acid (1-methyl-1-thiazol-2-yl-ethyl)-amide]
Human CB2 receptors
  EC50: 118 nM
Human CB1 receptors
  EC50: 1.49 µM

## Cc1nc(C2(NC(=O)c3ccc(C4CC4)c(OCc4ccccn4)n3)CCC2)no1 [Example 189, 5-Cyclopropyl-N-(1-(5-methyl-1,2,4-oxadiazol-3-yl)cyclobutyl)-6-(pyridin-2-ylmethoxy)picolinamide]
Human CB2 receptors
  EC50: 381 nM
Human CB1 receptors
  EC50: > 10 µM

## CCC(CC)(NC(=O)c1ccc(C2CC2)c(OCC2CC2)n1)C(=O)NCCOC [Example 275, 5-Cyclopropyl-6-cyclopropylmethoxy-pyridine-2-carboxylic acid [1-ethyl-1-(2-methoxy-ethylcarbamoyl)-propyl]-amide]
Human CB2 receptors
  EC50: 51.8 nM
Human CB1 receptors
  EC50: > 10 µM

## CCC(CC)(NC(=O)c1cccc(-c2cccc(Cl)c2)n1)C(=O)N(C)C [Example 23, 6-(3-Chloro-phenyl)-pyridine-2-carboxylic acid (1-dimethylcarbamoyl-1-ethyl-propyl)-amide]
Human CB2 receptors
  EC50: 48.2 nM
Human CB1 receptors
  EC50: > 10 µM

## CNC(=O)[C@H](CC(C)C)NC(=O)c1ccc(C2CC2)c(OCC2CCOCC2)n1 [Example 203, (S)-5-Cyclopropyl-N-(4-methyl-1-(methylamino)-1-oxopentan-2-yl)-6-((tetrahydro-2H-pyran-4-yl)methoxy)picolinamide]
Human CB2 receptors
  EC50: 2.7 nM
Human CB1 receptors
  EC50: 0.0749 µM

## CC(C)C[C@H](NC(=O)c1ccc(C2CCOC2)c(OCC2CC2)n1)C(N)=O (stereo partly drawn) [Example 114, 6-Cyclopropylmethoxy-5-(tetrahydro-furan-3-yl)-pyridine-2-carboxylic acid ((S)-1-carbamoyl-3-methyl-butyl)-amide]
Human CB2 receptors
  EC50: 5.7 nM
Human CB1 receptors
  EC50: 0.703 µM

## CC(C)[C@@](C)(CO)NC(=O)c1ccc(C2CC2)c(OCC2CC2)n1 [Example 279, 5-Cyclopropyl-6-cyclopropylmethoxy-pyridine-2-carboxylic acid ((S)-1-hydroxymethyl-1,2-dimethyl-propyl)-amide]
Human CB2 receptors
  EC50: 23 nM
Human CB1 receptors
  EC50: > 10 µM

## CC(C)(CCO)NC(=O)c1ccc(C2CC2)c(OCC2CC2)n1 [Example 194, 5-Cyclopropyl-6-(cyclopropylmethoxy)-N-(4-hydroxy-2-methylbutan-2-yl)picolinamide]
Human CB2 receptors
  EC50: 99.1 nM
Human CB1 receptors
  EC50: > 10 µM

## CCC(CC)(NC(=O)c1cccc(-c2ccc(Cl)cc2)n1)C(=O)NC [Example 76, 6-(4-Chloro-phenyl)-pyridine-2-carboxylic acid (1-ethyl-1-methylcarbamoyl-propyl)-amide]
Human CB2 receptors
  EC50: 185 nM
Human CB1 receptors
  EC50: > 10 µM

## CNC(=O)[C@H](CC(C)C)NC(=O)c1cccc(-c2ccc(F)c(Cl)c2)n1 [Example 212, (S)-6-(3-Chloro-4-fluorophenyl)-N-(4-methyl-1-(methylamino)-1-oxopentan-2-yl)picolinamide]
Human CB2 receptors
  EC50: 13.4 nM
Human CB1 receptors
  EC50: > 10 µM

## CCC(CC)(NC(=O)c1ccc(N2CC(F)(F)C2)c(OCC2CC2)n1)C(=O)N1CC(F)(F)C1 [Example 307, 6-Cyclopropylmethoxy-5-(3,3-difluoro-azetidin-1-yl)-pyridine-2-carboxylic acid [1-(3,3-difluoro-azetidine-1-carbonyl)-1-ethyl-propyl]-amide]
Human CB2 receptors
  EC50: 4.7 nM
Human CB1 receptors
  EC50: > 10 µM

## Cc1nc(C(C)(C)NC(=O)c2ccc(C3CC3)c(OCC3CCCO3)n2)no1 (stereo not shown) [Example 166, 5-Cyclopropyl-6-(tetrahydro-furan-2-ylmethoxy)-pyridine-2-carboxylic acid [1-methyl-1-(5-methyl-[1,2,4]oxadiazol-3-yl)-ethyl]-amide]
Human CB2 receptors
  EC50: 30.5 nM
Human CB1 receptors
  EC50: > 10 µM

## CC(C)(NC(=O)c1cccc(-c2cccc(Cl)c2)n1)c1nccs1 [Example 12, 6-(3-Chloro-phenyl)-pyridine-2-carboxylic acid (1-methyl-1-thiazol-2-yl-ethyl)-amide]
Human CB2 receptors
  EC50: 105 nM
Human CB1 receptors
  EC50: > 10 µM

## COCCOCC(C)(C)NC(=O)c1ccc(C2CC2)c(OCC2CC2)n1 [Example 117, 5-Cyclopropyl-6-cyclopropylmethoxy-pyridine-2-carboxylic acid [2-(2-methoxy-ethoxy)-1,1-dimethyl-ethyl]-amide]
Human CB2 receptors
  EC50: 350 nM
Human CB1 receptors
  EC50: > 10 µM

## CNC(=O)[C@@H](NC(=O)c1ccc(Br)c(OCC2CCCO2)n1)C(C)(C)C (stereo partly drawn) [Example 188, 5-Bromo-6-(tetrahydro-furan-2-ylmethoxy)-pyridine-2-carboxylic acid ((S)-2,2-dimethyl-1-methylcarbamoyl-propyl)-amide]
Human CB2 receptors
  EC50: 5 nM
Human CB1 receptors
  EC50: 0.375 µM

## CCC(CC)(NC(=O)c1ccc(C2CC2)c(-c2cccc(Cl)c2)n1)C(=O)NC [Example 71, 6-(3-Chloro-phenyl)-5-cyclopropyl-pyridine-2-carboxylic acid (1-ethyl-1-methylcarbamoyl-propyl)-amide]
Human CB2 receptors
  EC50: 61.2 nM
Human CB1 receptors
  EC50: > 10 µM

## O=C(N[C@@H](CC1CC1)C(=O)NN1CCC(O)C1)c1ccc(C2CC2)c(OCC2CC2)n1 (single isomer, unassigned; (-)) [Example 380]
Human CB2 receptors
  EC50: 584 nM
Human CB1 receptors
  EC50: > 10 µM

## O=C(NCc1ccccn1)c1ccc(N2CC(F)(F)C2)c(OCC2CC2)n1 [Example 147, 6-Cyclopropylmethoxy-5-(3,3-difluoro-azetidin-1-yl)-pyridine-2-carboxylic acid (pyridin-2-ylmethyl)-amide]
Human CB2 receptors
  EC50: 922 nM
Human CB1 receptors
  EC50: > 10 µM

## CC(C)CSc1cccc(C(=O)N[C@@H](CC(C)C)C(N)=O)n1 [Example 331, 6-Isobutylsulfanyl-pyridine-2-carboxylic acid ((S)-1-carbamoyl-3-methyl-butyl)-amide]
Human CB2 receptors
  EC50: 16.6 nM
Human CB1 receptors
  EC50: > 10 µM

## O=C(NN1CCCCC1)c1cccc(OCC2CC2)n1 [Example 68, 6-Cyclopropylmethoxy-pyridine-2-carboxylic acid piperidin-1-ylamide]
Human CB2 receptors
  EC50: 429 nM
Human CB1 receptors
  EC50: > 10 µM

## CC(C)(NC(=O)c1ccc(C2CCCC2)c(-c2cccc(Cl)c2)n1)c1nccs1 [Example 128, 6-(3-Chloro-phenyl)-5-cyclopentyl-pyridine-2-carboxylic acid (1-methyl-1-thiazol-2-yl-ethyl)-amide]
Human CB2 receptors
  EC50: 240 nM
Human CB1 receptors
  EC50: > 10 µM

## Cc1nc([C@H](CC2CC2)NC(=O)c2cccc(-c3ccc(F)c(Cl)c3)n2)no1 [Example 343, 6-(3-Chloro-4-fluoro-phenyl)-pyridine-2-carboxylic acid [(S)-2-cyclopropyl-1-(5-methyl-[1,2,4]oxadiazol-3-yl)-ethyl]-amide]
Human CB2 receptors
  EC50: 3.5 nM
Human CB1 receptors
  EC50: > 10 µM
